Measurements: patent US11844772B2, “Method for treating rhabdoid tumors” (Lantern Pharma Inc., priority 2020, dated 2023)

What was measured:
[1] = test system: CHLA-02 (group 1) ATRT cell line; experiment: LP-184 sensitivity in ATRT cell line CHLA-02; assay type: cell-based
Excerpt: (§1) Patients receive several types of treatment, which may include surgery, chemotherapy and radiation, but the overall 2-year survival rate remains less than 15% for children aged younger than 3 years at diagnosis. ATRTs commonly have mutations in or loss of the gene SMARCB1. Increased LP-184 sensitivity correlates with decreased expression of SMARCB1. The panel of 3 ATRT cell lines, 2 of the 3 lines show evidence of high sensitivity to HydroxyUreaMethyl Acylfulvene (having a negative optical activity) or LP-184 with IC50s for those 2 being lower than 200 nM.

[2] = test system: CHLA-05 (group 1) ATRT cell line; experiment: LP-184 sensitivity in ATRT cell line CHLA-05; assay type: cell-based
Excerpt: as §1

[3] = test system: CHLA-06 (group 2A/B) ATRT cell line; experiment: LP-184 sensitivity in ATRT cell line CHLA-06; assay type: cell-based
Excerpt: as §1

[4] = test system: panel of 3 ATRT cell lines; experiment: LP-184 sensitivity in a panel of 3 ATRT cell lines; assay type: cell-based; conditions: 2 of the 3 ATRT cell lines (high sensitivity)
Excerpt: as §1

CHLA06 xenograft tumors = experiment: in vivo xenograft tumor study, animal model of atypical teratoid rhabdoid tumor (ATRT); design: species or system NOD SCID mice
Procedure: LP-184 or HydroxyUreaMethyl Acylfulvene with a negative optical activity was tested for anti-tumor efficacy in an in vivo xenograft tumor study by Lantern Pharma. […] LP-184 was administered after (treatment model) the onset of disease. CHLA06 cells were implanted subcutaneously in non-obese diabetic severe combined immunodeficiency (NOD SCID) mice, formed xenograft tumors, and were thereafter treated either with vehicle control of 95% saline/5% ethanol (N=10) or 2 mg/kg or 4 mg/kg LP-184 (N=10) administered as intravenous injections.
LP-184 was delivered as 5 every other day doses over 2 cycles with a break of 5 days between cycles (IV/QaD×5on/5off×2), i.e., dosing occurred on days 0, 2, 4, 6. 8, 14, 16, 18, 20, and 22 of the study. LP-184 treatment was started 4 weeks after implantation when the tumors reached a group average volume of 150 mm^3. […] 2 out of 10 mice in the 4 mg/kg LP-184 treatment group were virtually tumor-free at study termination (tumor volume 0.5 mm^3). […] The results are highlighted in FIG. 2, wherein the Y axis denotes tumor volume in mm^3 and X axis denotes days post, treatment initiation. Since tumor growth was established before administration of the anti-cancer study drug, the defining feature of the treatment tumor model, anti-tumor treatment effects may thus be appropriately attributed to LP-184.
In CHLA06 xenograft models, tumors from the vehicle control treated mice appear vividly large (length range 1.5-2 cm) whereas tumors from 4 mg/kg LP-184 treated animals shrunk remarkably (length less than 0.5 cm) or have fully regressed.

Which results are given for `CC1=C(CN(O)C(N)=O)C2=C(C)C3(CC3)[C@@](C)(O)C(=O)C2=C1` [LP-184, HydroxyUreaMethyl Acylfulvene]?
IC50 [1]: 1770 nM; IC50 [2]: 162 nM; IC50 [3]: 37.4 nM; IC50 [4]: < 200 nM; mice virtually tumor-free at study termination (CHLA06 xenograft tumors; 4 mg/kg IV group, N=10): 2 out of 10; tumor volume of virtually tumor-free mice (CHLA06 xenograft tumors; 4 mg/kg IV group, study termination): 0.5 mm^3; tumor length (photographs at end of experiment) (CHLA06 xenograft tumors; 4 mg/kg LP-184 treated animals, vehicle 1.5-2 cm): less than 0.5 cm; tumor regression, on average (CHLA06 xenograft tumors; LP-184 treated groups (2 or 4 mg/kg IV), end of study day 42): near complete tumor regression; tumor regrowth after final dose (CHLA06 xenograft tumors; day 40, final dose on day 22): no tumor regrowth; Tumor growth inhibition (CHLA06 xenograft tumors; relative to control, IV QoDx5 on/5 off x2, 2 mg/kg or 4 mg/kg): 112%
